# Where two headings read alike, the source gives them in different places.
# Key:
# [1] = LD50 (probit method), mouse; details: in vivo, iv
# [2] = LD50 (probit method), rat; details: in vivo, iv
# 3LL-induced aggregation = experiment: Test of Inhibition of Platelet Aggregation Caused by Cancer Cells (ex vivo), 3LL; format: in vivo, C57BL/6 mouse
# Description: (§1) The compound of the invention (dihydrochloride monohydrate) dissolved in a physiological saline solution (J.P.) was intravenously or orally administered to a 7-week-old C57BL/6 male mouse (body weight: about 20 g). Three minutes after the intravenous administration or 1 hour later from the oral administration, blood was taken from the abdominal vein into a syringe containing 1/10 volume of a 3.13% aqueous solution of sodium citrate dihydrate and PRP was prepared as described before in Test Example 6. The PRP was placed in a reaction tube under the same conditions as in Test Example 6, and 5 μl of a 200 mM calcium chloride aqueous solution was added thereto. One minute later, 50 μl of a B16BL6 (5×10^4 cells/50 μl)- or a 3LL (2×10^6 cells/50 μl)-cell suspension was added to the system. In the same manner as in Test Example 6, platelet aggregation was determined.
# [3] = tested on: platelet aggregation due to addition of B16BL6 cells; experiment: Test of Inhibition of Platelet Aggregation Caused by Cancer Cells (in vitro), B16BL6; format: cell-based, C57BL/6 mouse
# Description: (§2) Blood was taken from the abdominal vein of a 7-week-old C57BL/6 male mouse into a syringe containing 1/10 volume of a 3.13% aqueous solution of sodium citrate dihydrate as an anticoagulant. The thus prepared citrated blood sample was centrifuged at 230×g at room temperature for 7 minutes. The resulting supernatant fluid was used as PRP. The remainder was further centrifuged at 1,500×g at room temperature for 10 minutes, and the supernatant fluid was used as platelet-poor-plasma (PPP). Platelet count in PRP was adjusted to 450,000 per mm^3 by PPP. A 450 μl of PRP was placed in a reaction tube and subjected to centrifugation at 950 rpm at 30° C. About 1 minute later while continuing the centrifugation, 5 μl of a 200 mM calcium chloride aqueous solution was added to the system to a final concentration of […]. 30 seconds later, 5 μl of a saline solution of the compound (I) (dihydrochloride monohydrate) was added to the system, and additional 30 seconds later, 50 μl of a cell suspension containing 1×10^5 cells of B16 melamona BL6 (B16BL6) originated in a C57BL mouse or 50 μl of a cell suspension containing 1×10^6 cells of Lewis lung cancer (3LL) originated in a C57BL mouse was added thereto. Platelet aggregation of the sample system was determined from changes in transmittancy by use of an aggregometer. […]
# 3LL = experiment: Test of Inhibition on Pulmonary Metastasis, 3LL; format: in vivo, C57BL/6 mouse; details: day 11, mean ± standard error
# Description: (§3) 1×10^5 cells/animal of B16BL6 or 7×10^5 cells/animal of 3LL were inoculated to the tail vein of 10 to 12 6-week-old C57BL/6 male mice per group (body weight: about 18.5 g). The compound (I) (dihydrochloride monohydrate) dissolved in a physiological saline solution (J.P.) was administered to each animal at a dose of 1, 3 or 10 mg/kg orally 24 hours, 1 hour before and 1 hour after the inoculation, or intravenously immediately before the inoculation. On the 13th day from the inoculation of B16BL6 or 11th day from the inoculation of 3LL, the number of metastatic nodules in the lungs was counted using an operating microscope.
# [4] = tested on: platelet aggregation due to addition of 3LL cells; experiment: Test of Inhibition of Platelet Aggregation Caused by Cancer Cells (in vitro), 3LL; format: cell-based, C57BL/6 mouse
# Description: as §2
# [5] = tested on: B16BL6-induced aggregation; experiment: Test of Inhibition of Platelet Aggregation Caused by Cancer Cells (ex vivo), B16BL6; format: in vivo, C57BL/6 mouse; details: 1 mg/kg or more, i.v. or oral
# Description: as §1
# [6] = Solubility Test (water-solubility); format: physicochemical
# [7] = tested on: B16BL6-Induced Acute Pulmonary Embolism; experiment: Test of Inhibition of Death by Acute Pulmonary Embolism; format: in vivo, C57BL/6 mouse
# Description: The compound of the present invention (dihydrochloride monohydrate) was dissolved in a physiological saline solution (J.P.) and intravenously administered to the tail vein of a 5-week-old (C57BL/6 male mouse (body weight: about 18.5 g) at a dose of 10 mg/kg or 30 mg/kg. After 3 minutes, 5×10^5 cells of B16BL6 were intravenously inoculated to the tail vein. The death ratios 3 and 10 minutes after the inoculation are shown in Table 6.
# B16BL6 = experiment: Test of Inhibition on Pulmonary Metastasis, B16BL6; format: in vivo, C57BL/6 mouse; details: day 13, mean ± standard error
# Description: as §3
# platelet aggregation = experiment: Test of Platelet Aggregation Inhibition (in vitro), rat PRP; format: cell-based, rat (Wistar Imamichi); details: rat blood, read-out: Platelet Aggregation Inhibitory Activity (in vitro: IC50)
# Description: The test was performed as follows in accordance with the method of Ashida et al, Thrombosis and Haemostasis, Vol. 40, p542 (1979).
# Blood was taken by puncture from the heart of a Wistar Imamichi rat under anesthesia with pentobarbital into a syringe containing 1/10 volume of a 3.13% aqueous solution of sodium citrate dihydrate, and the citrated blood was centrifuged to obtain a platelet-rich-plasma (PRP). In the same manner, citrated blood was collected from the vein of a healthy human who had not taken aspirin or any other anti-inflammatory agent since before 10 days, followed by centrifugation to obtain PRP. 0.005 ml of each test compound was added to 0.445 ml each of these PRP samples, and the system was warmed at 30° C. for 1 minute. 0.05 ml of an aggregation inducer (ADP or collagen) was then added thereto, and platelet aggregation was determined according to the method of Born, Nature, Vol. 194, p927 (1962). The inhibitory activity of platelet aggregation was expressed in terms of 50% inhibition concentration, and the results obtained are shown in Table 2.
smiles,measurement,setting,value
"O=C1CN2Cc3cc(N4CCCCC4)ccc3N=C2N1 [Compound (I), 7-piperidino-1,2,3,5-tetrahydroimidazo[2,1-b]quinazolin-2-one]",LD50,[1]; female ddy mouse,380 mg/kg
same,LD50,[1]; male ddy mouse,314 mg/kg
same,LD50,[2]; female Wistar rat,219 mg/kg
same,LD50,[2]; male Wistar rat,232 mg/kg
same,delay of 3LL-induced aggregation (ex vivo),3LL-induced aggregation; 10 mg/kg (i.v.),≥ 150%
same,inhibition of 3LL-induced aggregation (ex vivo),3LL-induced aggregation; 30 mg/kg (i.v.),completely inhibited
same,inhibition of platelet aggregation due to addition of B16BL6 cells,[3]; 0.3 μM,partially inhibited
same,inhibition of platelet aggregation due to addition of B16BL6 cells,[3]; final concentration of 3 μM or more,completely inhibited
same,Number of Metastatic Nodules in the Lungs,3LL; 1 mg/kg,15.4 ± 2.8
same,Number of Metastatic Nodules in the Lungs,3LL; 3 mg/kg,5.9 ± 1.3
same,Number of Metastatic Nodules in the Lungs,3LL; 10 mg/kg,4.0 ± 1.1
same,inhibition of platelet aggregation due to addition of 3LL cells,[4]; 0.3 μM,partially inhibited
same,inhibition of platelet aggregation due to addition of 3LL cells,[4]; final concentration of 1 μM or more,completely inhibited
same,inhibition of B16BL6-induced aggregation (ex vivo),[5],completely inhibited
same,solubility,[6]; Water at pH 4,4.1 mg/mL
same,solubility,"[6]; pH 2, Tap Water, solution pH about 2",270 mg/mL
same,Number of Dead Animals/Number of Tested Animals,"[7]; i.v. 10 mg/kg, after 3 min",2/9
same,Number of Dead Animals/Number of Tested Animals,"[7]; i.v. 10 mg/kg, after 10 min",4/9
same,Number of Dead Animals/Number of Tested Animals,"[7]; i.v. 30 mg/kg, after 3 min",1/9
same,Number of Dead Animals/Number of Tested Animals,"[7]; i.v. 30 mg/kg, after 10 min",4/9
same,Number of Metastatic Nodules in the Lungs,B16BL6; 1 mg/kg,5.5 ± 1.1
same,Number of Metastatic Nodules in the Lungs,B16BL6; 3 mg/kg,5.3 ± 1.1
same,Number of Metastatic Nodules in the Lungs,B16BL6; 10 mg/kg,6.4 ± 1.1
same,IC50,platelet aggregation; inducer ADP,3800 nM
same,IC50,platelet aggregation; inducer collagen,330 nM

# — US4596806A, “7-piperidino-1,2,3,5-tetrahydroimidazo[2,1-b]-quinazolin-2-one having platelet aggregation inhibitory activity” (Daiichi Seiyaku Co., Ltd., priority 1983, dated 1986)
